Reference: US12214076B2, “Drug delivery vehicles for atherosclerosis nanomedicine” (Northwestern University, priority 2019, dated 2025)
Ends that are not written are not given here. Peptide text beside a SMILES is read from it. * marks the point of attachment. Palmitoyl = CCCCCCCCCCCCCCCC(=O)*

What was measured:
LDLR KO mice [1] = test: Atherosclerosis treatment study; assay type: in vivo, mouse
Method: (§1) Mouse model of atherosclerosis: To study atherosclerosis, the LDLR KO mouse was used. LDLR KO mice are fed a high fat “western” diet (Teklad TD.88137) starting at 4 weeks of age. This diet consists of 20% fat, 0.2% cholesterol, and 34% high sucrose. LDLR KO mice fed this diet typically develop severe hypercholesterolemia (>800 mg/dL) and hypertriglyceridemia (>300 mg/dL) after only 2 weeks. By 12 weeks on the high fat diet, atherosclerotic lesions are detected in the aortic root and aortic arch on cryosections stained with Oil Red O (Sigma). Atherosclerosis was quantified in the aortic root as a percentage of the aortic root by taking the atherosclerotic area divided by the total aortic root area. Measurements were made with ImageJ software. All protocols for the animal model and procedures in this manuscript were approved by Northwestern University's Institutional Animal Care and Use Committee.
(§2) Blood samples were collected at the end of the treatment study for toxicology analysis. Mice were euthanized three days after their 16th treatment.
(§3) Tissue processing and imaging: Mice were sacrificed and euthanized under inhaled isoflurane anesthesia by diaphragm disruption and exsanguination. Phlebotomy was performed through direct right ventricular cardiac puncture using a 1 mL syringe and 25 G needle. Perfusion was performed through left ventricular cardiac puncture with 10 mL PBS and 10 mL 10% sucrose solution. The lungs, liver, spleen, kidney, aortic root, aortic arch, and descending aorta were harvested and stored in 10% sucrose for 20 minutes. Organs and vessels were then flash-frozen in Optimal Cutting Temperature embedding medium 4583 (Tissue-Tek®) with liquid nitrogen. Frozen specimens were stored at −80° C. and cryosectioned at […]. Confocal microscopy was performed on a Nikon AIR microscope. Two sets of images were acquired with a 10× Plan Fluor NA 0.3 objective. PAs were identified through quantification of the Alexa Fluor® 546 conjugated dye with 561 nm excitation and a 600/50 nm emission filter.
(§4) Images were acquired with spectral detection and spectrally unmixed to accurately separate green autofluorescence from the red Alexa Fluor® 546 signal. Brightfield and fluorescent microscopy were performed using a Zeiss Axio Imager.A2 microscope with AxioVision software (release 4.8.2, 06-2010). All confocal and fluorescent sections were mounted with ProGold Diamond mounting media (Sigma). Slides were stained with Oil Red O to image and quantify atherosclerosis under brightfield microscopy. The elastic laminae were identified using the green fluorescent protein (GFP) filter with an exposure time of 3500 ms under 5× magnification. Nanofibers were identified in the aortic root by presence of Alexa Fluor® 546 on the Cy3 filter under 5-10× magnification, and in the internal organs under 20× magnification. Fluorescent pixel quantification in the aortic root and within organs was performed with ImageJ software.
(§5) Statistics: The effect of treatments and sex on atherosclerosis progression in mice was analyzed using one- or two-factor analysis of variance (ANOVA) followed by a post-hoc student's t-test. The toxicological effects of treatments were also analyzed using two-factor ANOVA and a post-hoc student's t-test. Toxicological effects of treatments on liver proteins AST, ALT, and ALP were further analyzed using ordinal logistic regression models of likelihood ratio tests, followed by a post-hoc Wald test

[2] = system: atherosclerotic LDLR KO mice; test: In vivo proof of concept: PA nanofiber localization in aortic root; design: species or system mouse; conditions: 24 h after intravenous injection, high fat diet 14 weeks, 6 mg kg-1 PA
Method: Mouse Model of Atherosclerosis and In Vivo Proof of Concept: LDLR-KO mice were fed a high fat “Western” diet (Teklad TD.88137) starting at 4 weeks of age. This diet consisted of 20% fat, 0.2% cholesterol, and 34% high sucrose. LDLR-KO mice fed this diet typically develop severe hypercholesterolemia (>800 mg/dL) and hypertriglyceridemia (>300 mg/dL) after only 2 weeks, and by 12 weeks on the high fat diet, atherosclerotic lesions are detected in the aortic root and aortic arch. After 14 weeks on the high fat diet, mice received intravenous injections of PA nanofibers dissolved in PBS (dorsal penile vein in males) under sterile conditions. Mice were briefly anesthetized for injection with inhaled isoflurane. After injection, mice were monitored and allowed to recover from anesthesia in a heated oxygen chamber. […] PA fluorescence was assessed with the HE CY3 filter (Zeiss filter #43) using excitation and emission wavelengths of 550-575 nm and 605-670 nm, respectively. Nuclear staining was performed with DAPI (4′,6-Diamidino-2-Phenylindole, Dilactate, ThermoFisher, Chicago, IL), and assessed with the DAPI filter (Zeiss filter #49) using excitation and emission wavelengths of 365-395 and 445-450 nm, respectively. Tissue autofluorescence was assessed with the green fluorescent protein filter (Zeiss filter #38) using excitation and emission wavelengths of 470-495 and 525-550 nm, respectively. […]

[3] = TEM characterization of PA nanofibers for diameter and length (Example 3); assay type: physicochemical
Method: Samples at 1 mM in PBS were prepared for TEM by plating on copper supports covered with thin carbon foil 400-mesh that were treated with glow discharge. […] Due to the overlapping fibers, automated tools including FiberApp could not be used to analyze the nanofibers. Instead, the TEM images were analyzed manually for nanofiber diameter and length using ImageJ software. Cryogenic TEM of samples was also performed using a JEOL 1230 at 100 kV accelerating voltage and Gatan 831 CCD camera. […] Samples were prepared at 1 mM in PBS blotted once for 3 seconds before plunging into liquid ethane using a Vitrobot Mark III (FEI) vitrification robot.

[4] = Treatment study serum chemistry (toxicology analysis); assay type: in vivo, mouse; conditions: mouse, in vivo
Method: as §2, §3, §5

LDLR KO mice [5] = test: Targeting of atherosclerosis by IV injected ApoA1 PA nanofibers (Example 3); assay type: in vivo, mouse; conditions: within 24 hours after injection, confocal, Alexa Fluor 546
Method: as §1
Injection of PA nanofibers: PA nanofibers were dissolved at 2-4 mg/mL concentration in room temperature phosphate buffered saline (PBS). After 14 weeks on the high fat diet, mice received intravenous injections of PA nanofiber dissolved in PBS (dorsal penile vein in males, retro-orbital injection in females) using a 31 G hypodermic insulin needle on a 0.3 mL syringe under sterile conditions and magnification (NIKON SMZ 645 Zoom Stereomicroscope). Mice were briefly anesthetized for injection with inhaled isoflurane. Mice were monitored and allowed to recover from anesthesia in a heated oxygen chamber.
Dose and concentration study: To determine the optimum concentration for targeting efficacy and safety, LDLR KO mice fed the high fat diet for 14 weeks were injected with PA nanofiber at concentrations of 1 mg/mL, 2 mg/mL, and 4 mg/mL at 8 mg/kg in PBS. Similarly, to determine the optimum dose for targeting efficacy and safety, LDLR KO mice fed the high fat diet for 14 weeks were injected at PA nanofiber doses of 8 mg/kg, 6 mg/kg, 4 mg/kg, 3.3 mg/kg, and 1.7 mg/kg at 2 mg/mL in PBS. Safety, optimum dose, and concentration for targeting was assessed by survival of the animal and fluorescent pixel quantification in the aortic root, liver, lungs, kidneys, and spleen.
as §3
as §4, with “Fluorescent pixel quantification in the aortic root and within organs was performed with ImageJ software.” left out

[6] = ROS-Ac2-26 PA cleavage assay with SIN-1; assay type: physicochemical
Method: ROS-Ac2-26 and MMP-Ac2-26 PA cleavage assays: To examine ROS-mediated cleavage, 3-morpholinosydnonimine hydrochloride (SIN-1, Sigma-Aldrich or Abcam) was used. ROS-Ac2-26 PAs were reconstituted to 0.5 mM in phosphate buffer and treated with 100 μM SIN-1 for 24 hours at 37° C. For MMP2/9-mediated cleavage, human recombinant MMP2 (R&D systems, carrier-free) was used, activated with freshly prepared 1 mMp-aminophenylmercuric acetate (APMA, Sigma-Aldrich) for one hour at 37° C. The APMA disrupts the cysteine-zinc bond in MMP2 responsible for enzyme latency by liberation of the sulfhydryl group. 10% MMP-Ac2-26 PA co-assemblies were prepared at 0.5 mM in a cleavage buffer containing 50 mM tricine, 50 mM NaCl, 50 μM ZnCl2, and 10 mM CaCl2) at pH 7.4, and treated with 40 nM human recombinant MMP2 for 24 hours at 37° C. At the end of each time point, the samples were stored at −20° C., effectively stopping the cleavage reactions. Samples were analyzed at room temperature, 0.04-0.3 mg/mL with 0.1% NH4OH using a ThermoFisher Q Exactive HIF-X (ThermoFisher, Bremen, Germany) mass spectrometer coupled with a Waters Acquity H-class liquid chromatograph system. […] All measurements were recorded at a resolution setting of 120,000. […] Injection volume for all samples was […]. Data was analyzed on Xcalibur (ThermoFisher, Breman, Germany).

[7] = read-out: dissociation constant for PEIPC; cited from earlier work
[8] = 30 measurements from three images
[9] = 30 measurements from three images, listed as Ser PA
[10] = 30 measurements from three images, listed as scrambled

**Q.** For `CCCCCCCCCCCCCCCC(=O)N[C@H](C(=O)N[C@H](C(=O)N[C@@H](C)C(=O)N[C@@H](C)C(=O)N[C@@H](CCC(=O)O)C(=O)N[C@@H](CCC(=O)O)C(=O)N[C@@H](CS)C(=O)N[C@@H](CC(=O)O)C(=O)N[C@@H](Cc1c[nH]c2ccccc12)C(=O)N[C@@H](Cc1ccccc1)C(=O)N[C@@H](C)C(=O)N[C@@H](CCCCN)C(=O)N[C@@H](CC(=O)O)C(=O)N[C@@H](Cc1ccc(O)cc1)C(=O)N[C@@H](Cc1ccccc1)C(=O)N[C@@H](CCCCN)C(=O)N[C@@H](CCCCN)C(=O)N[C@@H](C)C(=O)N[C@@H](Cc1ccccc1)C(=O)N[C@H](C(=O)N[C@@H](CCC(=O)O)C(=O)N[C@@H](CCC(=O)O)C(=O)N[C@@H](Cc1ccccc1)C(=O)N[C@@H](C)C(=O)N[C@@H](CCCCN)C(N)=O)C(C)C)C(C)C)C(C)C` [Scr PA] (Palmitoyl-VVAAEECDWFAKDYFKKAFVEEFAK-NH2), which “atherosclerosis progression in comparison to the PBS control” value (LDLR KO mice [1]; both sexes, twice per week over eight weeks, percent of atherosclerosis in the aortic root) is on record?
**A.** Its value is “significantly decreased”.

**Q.** What about the “reduction of atherosclerosis in females in comparison to males” value (LDLR KO mice [1]; mouse, in vivo) of the same molecule?
**A.** The value was “greater effects upon reducing atherosclerosis in females”.

**Q.** And the “localization of nanofibers to areas of atherosclerotic plaque in the aortic root” value [2]?
**A.** Its value is “does not reveal evidence of nanofiber localization”.

**Q.** What about the “Diameter (nm) Median” value [3, 8] of the same molecule?
**A.** The value was 14.2 nm.

**Q.** And the “Length (nm) Average” value [3, 8]?
**A.** Its value is 403.8 nm.

**Q.** What about the “Diameter (nm) Average” value [3, 9] of the same molecule?
**A.** Its value is 13.8 nm.

**Q.** And the “Length (nm) Median” value [3, 9]?
**A.** Its value is 257.6 nm.

**Q.** What about the “Diameter (nm) Average” value [3, 10] of the same molecule?
**A.** The value was 13.8±2.4 nm.

**Q.** And the “Length (nm) Median” value [3, 10]?
**A.** Its value is 258 nm.

**Q.** And the “AST levels in comparison to the PBS control” value [4]?
**A.** The value was “no significant differences”.

**Q.** And the Creatine [4]?
**A.** The Creatine was 0 U/L.

**Q.** And the Sodium [4]?
**A.** The Sodium was 138 mmol/L.

**Q.** And the “Total Protein” value [4]?
**A.** The value was 5.4 g/dL.

**Q.** And the “aspartate aminotransferase (AST) in the blood in comparison to PBS” value [4]?
**A.** Its value is “significantly elevated levels of aspartate aminotransferase (AST)”.

**Q.** And the “localization to areas of atherosclerosis” value (LDLR KO mice [5])?
**A.** Its value is “did not localize to areas of atherosclerosis”.

**Q.** For “C16-V2A2 (SEQ ID NO: 8)-E2-KP5K (SEQ ID NO: 10)-AMVSEFLKQAWFIENEEQEYVQTVK SEQ ID NO: 7-NH2 [ROS-Ac2-26 PA]”, which “Ac2-26 release from PA” value ([6]; 100 μM SIN-1, 24 hours, 37° C.) is on record?
**A.** The value was “released Ac2-26”.

**Q.** What about the “Ac2-26 cleavage without SIN-1 treatment” value ([6]; untreated) of the same molecule?
**A.** The value was “showed the presence of cleaved Ac2-26 peptide”.

**Q.** Which results are given for “DWFKAFYDKVAEKFKEAF (SEQ ID NO: 2)-NH2 (DWFKAFYDKVAEKFKEAF-NH2) [4F, 18 amino acid ApoA1 mimetic peptide]”?
**A.** nanofiber formation [3]: No nanofiber formation; Kd [7]: 1e-05 µM; localization to areas of atherosclerosis (LDLR KO mice [5]): localized to areas of atherosclerosis

**Q.** Which Kd [7] does the source give for “native ApoA1: main protein component of high density lipoprotein (HDL) cholesterol” here?
**A.** The Kd was 50 µM.
